Test results published in patent US7452887B2, “Quinoline- and isoquinoline-based compounds exhibiting ATP-utilizing enzyme inhibitory activity, and compositions, and uses thereof” (Amphora Discovery Corporation, priority 2004, dated 2008).

Key:
Test in all cases: HTS ATP-utilizing enzyme assay, off-chip mobility-shift (Caliper HTS 250)
Assay type in all cases: biochemical
Details in all cases: test compound 10 μM, kinase listed = active (greater than six-sigma from the mean activity of inactive compounds)
MAPKAPK2 = MAPKAPK2 (Homo sapiens, UniProt P49137)
In short: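 Single-point screen of test compound at 10 μM against MAPKAPK2 with peptide substrate in HEPES pH 7.5 buffer (Triton X-100, BSA), 2.5 h at 20-22 °C. Substrate-to-phosphopeptide ratio was read by off-chip microfluidic mobility shift; EDTA and DMSO wells defined 100% and 0% controls, hits by six-sigma limits.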

AKT1 = AKT1 (Homo sapiens, UniProt P31749)
In short: (§1)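 Steps: compound added at 10 μM final; enzyme then peptide substrate added in HEPES pH 7.5, Triton X-100, BSA buffer; incubation 2.5 hrs at 20° C. to 22° C.; EDTA quench; microfluidic separation of substrate and phosphoproduct. DMSO wells set 0% inhibition, EDTA wells 100%.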

AKT3 = AKT3 (Homo sapiens, UniProt Q9Y243)
In short: as §1

NEK2 = target: T1, NEK2 (Homo sapiens, UniProt P51955)
T1 sequence (P51955 1-445): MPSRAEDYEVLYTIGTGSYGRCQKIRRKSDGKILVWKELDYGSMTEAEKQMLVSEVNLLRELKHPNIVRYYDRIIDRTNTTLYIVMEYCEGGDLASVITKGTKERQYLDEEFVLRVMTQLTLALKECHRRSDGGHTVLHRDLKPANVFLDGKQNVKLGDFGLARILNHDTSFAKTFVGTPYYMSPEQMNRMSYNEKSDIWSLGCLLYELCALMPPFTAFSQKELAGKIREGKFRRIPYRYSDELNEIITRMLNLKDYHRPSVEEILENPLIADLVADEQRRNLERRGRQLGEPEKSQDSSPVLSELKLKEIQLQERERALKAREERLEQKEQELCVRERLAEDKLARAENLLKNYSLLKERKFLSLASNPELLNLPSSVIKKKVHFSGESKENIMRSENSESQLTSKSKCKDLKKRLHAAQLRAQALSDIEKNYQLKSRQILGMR
In short: as §1

PRAK = target: T2, PRAK (Homo sapiens, UniProt Q8IW41)
T2 sequence (Q8IW41 1-473): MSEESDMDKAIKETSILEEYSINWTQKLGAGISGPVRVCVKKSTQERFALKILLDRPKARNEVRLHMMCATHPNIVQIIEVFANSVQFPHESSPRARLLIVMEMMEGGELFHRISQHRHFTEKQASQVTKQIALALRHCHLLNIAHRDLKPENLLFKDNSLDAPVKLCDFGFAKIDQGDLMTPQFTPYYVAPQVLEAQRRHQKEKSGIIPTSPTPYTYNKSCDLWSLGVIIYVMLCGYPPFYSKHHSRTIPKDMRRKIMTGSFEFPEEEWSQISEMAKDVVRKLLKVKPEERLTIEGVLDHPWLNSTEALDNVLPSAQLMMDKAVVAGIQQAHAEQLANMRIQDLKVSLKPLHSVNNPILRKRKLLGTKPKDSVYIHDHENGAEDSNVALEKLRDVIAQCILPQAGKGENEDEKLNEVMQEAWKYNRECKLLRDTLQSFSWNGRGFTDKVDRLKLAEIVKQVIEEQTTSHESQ
In short: as §1

Sequence of AKT3 (Q9Y243 whole entry): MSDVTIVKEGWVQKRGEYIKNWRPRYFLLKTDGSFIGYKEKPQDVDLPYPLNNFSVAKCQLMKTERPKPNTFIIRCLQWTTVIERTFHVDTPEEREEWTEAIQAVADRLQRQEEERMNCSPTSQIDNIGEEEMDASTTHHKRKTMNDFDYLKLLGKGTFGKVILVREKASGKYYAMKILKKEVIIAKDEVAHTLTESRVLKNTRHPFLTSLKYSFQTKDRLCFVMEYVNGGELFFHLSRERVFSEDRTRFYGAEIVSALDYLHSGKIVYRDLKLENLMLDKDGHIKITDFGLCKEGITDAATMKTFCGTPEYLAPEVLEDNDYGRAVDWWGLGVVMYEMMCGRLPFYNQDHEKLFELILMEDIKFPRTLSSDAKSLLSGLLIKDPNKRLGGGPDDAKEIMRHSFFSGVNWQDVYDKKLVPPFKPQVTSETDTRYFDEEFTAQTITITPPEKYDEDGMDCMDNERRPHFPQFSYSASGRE
Sequence of AKT1 (P31749 whole entry): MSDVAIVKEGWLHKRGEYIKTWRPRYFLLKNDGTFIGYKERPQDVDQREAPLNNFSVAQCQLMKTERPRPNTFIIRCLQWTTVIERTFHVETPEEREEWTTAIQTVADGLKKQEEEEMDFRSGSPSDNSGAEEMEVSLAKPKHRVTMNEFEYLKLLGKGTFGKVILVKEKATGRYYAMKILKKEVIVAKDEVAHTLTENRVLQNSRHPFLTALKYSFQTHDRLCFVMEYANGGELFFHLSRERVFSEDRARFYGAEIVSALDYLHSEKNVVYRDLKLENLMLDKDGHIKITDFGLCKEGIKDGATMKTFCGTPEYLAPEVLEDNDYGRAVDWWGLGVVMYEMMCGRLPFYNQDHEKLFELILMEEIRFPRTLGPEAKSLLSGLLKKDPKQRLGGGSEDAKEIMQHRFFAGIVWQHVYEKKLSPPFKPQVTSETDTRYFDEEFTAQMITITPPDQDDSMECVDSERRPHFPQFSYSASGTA
Sequence of MAPKAPK2 (P49137 whole entry): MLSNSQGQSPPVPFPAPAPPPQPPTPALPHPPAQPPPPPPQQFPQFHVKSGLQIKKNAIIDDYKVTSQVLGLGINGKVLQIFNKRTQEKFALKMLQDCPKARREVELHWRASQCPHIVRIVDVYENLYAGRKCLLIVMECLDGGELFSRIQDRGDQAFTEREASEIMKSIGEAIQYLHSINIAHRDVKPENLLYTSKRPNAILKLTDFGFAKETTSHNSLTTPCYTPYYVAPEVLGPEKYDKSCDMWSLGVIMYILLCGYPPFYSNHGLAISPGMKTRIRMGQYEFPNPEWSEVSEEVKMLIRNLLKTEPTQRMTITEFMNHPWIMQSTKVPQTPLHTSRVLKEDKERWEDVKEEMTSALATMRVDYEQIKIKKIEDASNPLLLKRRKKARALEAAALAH

Activity (MAPKAPK2): MAPKAPK2
Activity (AKT1): AKT1
Activity (AKT3): AKT3
Activity (NEK2): NEK2
Activity (PRAK): PRAK
SMILES: CN1CCN(c2ccc(Nc3ccnc4ccc(-c5cccc(C#N)c5)cc34)cc2)CC1 [3-(4-(4-(4-methylpiperazin-1-yl)phenylamino)quinolin-6-yl)benzonitrile]
